# Experimental data from publication PMC11981937 (Nature, 2025).
# pEC50: −log10 of the molar value. “And” between values parts separate entries of the source, which are not always exact repeats. Equal values may be shown once. “Also recorded” adds a separate entry of the source. Read-outs that look alike come from different tables or passages of the source.
# Key:
# PDCoV = PDCoV antiviral CPE reduction assay in Huh7 cells; assay type: cell-based, porcine deltacoronavirus; conditions: PDCoV
# WIV-1 = test: organism not typed; assay type: cell-based, bat WIV-1
# in vitro [1] = conditions: human
# IBV = test: microbe, parasite or virus in culture; assay type: cell-based, infectious bronchitis virus
# SARS-CoV-2 B1 = assay type: in vivo, Syrian golden hamster; conditions: for Histopathology score, average / Histopathology score, median / Infectious virus in the lung (TCID50/mg), average Log 10 / Infectious virus in the lung (TCID50/mg), median Log 10 / Viral load (viral RNA) in the lung, average Log 10 / Viral load (viral RNA) in the lung, median Log 10: n=5; for Histopathology score, individual animal / Infectious virus in the lung (TCID50/mg), Log 10, individual animal / Infectious virus in the lung, individual animal / Viral load (viral RNA) in the lung, Copy number, individual animal / Viral load (viral RNA) in the lung, Log 10, individual animal: listed as 87009676-AAA
# in vivo [2] = conditions: cynomolgus monkey
# Huh7 cells = conditions: human
# in vivo [3] = conditions: rat
# in vitro [4] = conditions: human; remark: listed apart in the source
# [5] = pre-exposure, 8.33 mg/kg BID, 8.33 mg/kg
# [6] = pre-exposure, 25 mg/kg BID, 25 mg/kg
# [7] = pre-exposure, 75 mg/kg BID, 75 mg/kg
# [8] = pre-exposure, 8.33 mpk BID, 8.33 mg/kg
# [9] = pre-exposure, 25 mpk BID, 25 mg/kg
# [10] = pre-exposure, 75 mpk BID, 75 mg/kg
smiles,measurement,setting,value
"C[C@H]1Cn2ncc(C(=O)Nc3cccc(C#N)c3)c2C(=O)N1c1ccc(C(F)(F)c2ccccc2)cc1 [JNJ-9676, (S)-N-(3-cyanophenyl)-5-(4-(difluoro(phenyl)methyl)phenyl)-6-methyl-4-oxo-4,5,6,7-tetrahydropyrazolo[1,5-a]pyrazine-3-carboxamide]",antiviral activity (in words),PDCoV,no activity
same,pEC50,WIV-1,8.22 to 8.40
same,CC50 at 6 days,in vitro [1],> 50 µM
same,pEC50,"IBV; Avian coronavirus, Huh-7, read-out: Median EC50",5.10
same,EC90,"IBV; Avian coronavirus, Huh-7, read-out: Median EC90",> 30 µM
same,potency (in words),IBV; gammacoronavirus IBV,single-digit micromolar potency
same,lowest effective dose,SARS-CoV-2 B1; Syrian golden hamster model,25 mg per kg BID
same,"Histopathology score, average","SARS-CoV-2 B1; pre-exposure, 8.33 mg/kg BID",1.80
same,"Histopathology score, median","SARS-CoV-2 B1; pre-exposure, 8.33 mg/kg BID",2.00
same,"Infectious virus in the lung (TCID50/mg), average Log 10","SARS-CoV-2 B1; pre-exposure, 8.33 mg/kg BID",4.72 Log 10
same,"Infectious virus in the lung (TCID50/mg), median Log 10","SARS-CoV-2 B1; pre-exposure, 8.33 mg/kg BID",4.67 Log 10
same,"Viral load (viral RNA) in the lung, average Log 10","SARS-CoV-2 B1; pre-exposure, 8.33 mg/kg BID",4.56 Log 10
same,"Viral load (viral RNA) in the lung, median Log 10","SARS-CoV-2 B1; pre-exposure, 8.33 mg/kg BID",4.62 Log 10
same,"Histopathology score, individual animal",SARS-CoV-2 B1; [5],2 and 1.5
same,"Infectious virus in the lung (TCID50/mg), Log 10, individual animal",SARS-CoV-2 B1; [5],5.82 Log 10 and 3.86 Log 10 and 4.99 Log 10 and 4.24 Log 10 and 4.67 Log 10
same,"Infectious virus in the lung, individual animal",SARS-CoV-2 B1; [5],662125.31 TCID50/mg and 7237.18 TCID50/mg and 98821.18 TCID50/mg and 17573.17 TCID50/mg and 46447.60 TCID50/mg
same,"Viral load (viral RNA) in the lung, Copy number, individual animal",SARS-CoV-2 B1; [5],2.23E+04 and 1.34E+05 and 8.49E+02 and 4.14E+04 and 6.27E+05
same,"Viral load (viral RNA) in the lung, Log 10, individual animal",SARS-CoV-2 B1; [5],4.35 Log 10 and 5.13 Log 10 and 2.93 Log 10 and 4.62 Log 10 and 5.80 Log 10
same,cumulative histopathological lung score (in words),"SARS-CoV-2 B1; pre-exposure, 25 mg per kg BID",reduced to the baseline; also recorded: significantly reduced
same,reduction of viral load in the lung,"SARS-CoV-2 B1; pre-exposure, 25 mg per kg BID, oral",3.5 log10[RNA copies per mg lung]
same,"Histopathology score, average","SARS-CoV-2 B1; pre-exposure, 25 mg/kg BID",1.40
same,"Histopathology score, median","SARS-CoV-2 B1; pre-exposure, 25 mg/kg BID",1.50
same,"Infectious virus in the lung (TCID50/mg), average Log 10","SARS-CoV-2 B1; pre-exposure, 25 mg/kg BID",0.81 Log 10
same,"Infectious virus in the lung (TCID50/mg), median Log 10","SARS-CoV-2 B1; pre-exposure, 25 mg/kg BID",1.28 Log 10
same,"Viral load (viral RNA) in the lung, average Log 10","SARS-CoV-2 B1; pre-exposure, 25 mg/kg BID",9.46 Log 10
same,"Viral load (viral RNA) in the lung, median Log 10","SARS-CoV-2 B1; pre-exposure, 25 mg/kg BID",9.30 Log 10
same,"Histopathology score, individual animal",SARS-CoV-2 B1; [6],1.5 and 1
same,"Infectious virus in the lung (TCID50/mg), Log 10, individual animal",SARS-CoV-2 B1; [6],-2.00 Log 10 and 4.24 Log 10 and 2.52 Log 10 and 1.28 Log 10
same,"Infectious virus in the lung, individual animal",SARS-CoV-2 B1; [6],0.01 TCID50/mg and 17417.65 TCID50/mg and 328.03 TCID50/mg and 19.08 TCID50/mg
same,"Viral load (viral RNA) in the lung, Copy number, individual animal",SARS-CoV-2 B1; [6],7.91E+09 and 1.46E+09 and 1.22E+09 and 1.99E+09 and 7.25E+09
same,"Viral load (viral RNA) in the lung, Log 10, individual animal",SARS-CoV-2 B1; [6],9.90 Log 10 and 9.16 Log 10 and 9.08 Log 10 and 9.30 Log 10 and 9.86 Log 10
same,cumulative histopathological lung score (in words),"SARS-CoV-2 B1; pre-exposure, 75 mg per kg BID",significantly reduced
same,"Histopathology score, average","SARS-CoV-2 B1; pre-exposure, 75 mg/kg BID",1.20
same,"Histopathology score, median","SARS-CoV-2 B1; pre-exposure, 75 mg/kg BID",1.00
same,"Infectious virus in the lung (TCID50/mg), average Log 10","SARS-CoV-2 B1; pre-exposure, 75 mg/kg BID",1.08 Log 10
same,"Infectious virus in the lung (TCID50/mg), median Log 10","SARS-CoV-2 B1; pre-exposure, 75 mg/kg BID",2.38 Log 10
same,"Viral load (viral RNA) in the lung, average Log 10","SARS-CoV-2 B1; pre-exposure, 75 mg/kg BID",4.57 Log 10
same,"Viral load (viral RNA) in the lung, median Log 10","SARS-CoV-2 B1; pre-exposure, 75 mg/kg BID",3.13 Log 10
same,"Histopathology score, individual animal",SARS-CoV-2 B1; [7],1 and 1.5
same,"Infectious virus in the lung (TCID50/mg), Log 10, individual animal",SARS-CoV-2 B1; [7],-2.00 Log 10 and 3.24 Log 10 and 3.78 Log 10 and 2.38 Log 10
same,"Infectious virus in the lung, individual animal",SARS-CoV-2 B1; [7],0.01 TCID50/mg and 1756.82 TCID50/mg and 5984.59 TCID50/mg and 240.02 TCID50/mg
same,"Viral load (viral RNA) in the lung, Copy number, individual animal",SARS-CoV-2 B1; [7],4.93E+02 and 1.36E+03 and 1.66E+06 and 2.19E+08 and 2.75E+02
same,"Viral load (viral RNA) in the lung, Log 10, individual animal",SARS-CoV-2 B1; [7],2.69 Log 10 and 3.13 Log 10 and 6.22 Log 10 and 8.34 Log 10 and 2.44 Log 10
same,"Infectious virus in the lung, reduction relative to vehicle",SARS-CoV-2 B1; [8],0.50 (p>0.05) log10 TCID50/mg lung and 0.50 (p>0.05) log10 TCID50/mg lung
same,"Viral load in the lung, reduction relative to vehicle",SARS-CoV-2 B1; [8],2.01 (p>0.05) log10 copies/mg lung and 2.01 (p>0.05) log10 copies/mg lung
same,"Infectious virus in the lung, reduction relative to vehicle",SARS-CoV-2 B1; [9],4.41 (p=0.02) log10 TCID50/mg lung and 4.41 (p=0.02) log10 TCID50/mg lung
same,"Viral load in the lung, reduction relative to vehicle",SARS-CoV-2 B1; [9],3.51 (p=0.0003 log10 copies/mg lung and 3.51 (p=0.0003) log10 copies/mg lung
same,"Infectious virus in the lung, reduction relative to vehicle",SARS-CoV-2 B1; [10],4.14 (p=0.03) log10 TCID50/mg lung and 4.14 (p=0.03) log10 TCID50/mg lung
same,"Viral load in the lung, reduction relative to vehicle",SARS-CoV-2 B1; [10],3.01 (p=0.0019) log10 copies/mg lung and 3.01 (p=0.0019) log10 copies/mg lung
same,Vd,in vivo [2],5.1 L/kg
same,clearance,in vivo [2],1.9 mL/min/kg
same,half-life,in vivo [2],35 h
same,bioavailability,in vivo [2]; po,> 30%
same,CC50,Huh7 cells,> 30 µM
same,Vd,in vivo [3],8.4 L/kg
same,clearance,in vivo [3],5.2 mL/min/kg
same,half-life,in vivo [3],19 h
same,bioavailability,in vivo [3]; po,> 70%
same,CC50,in vitro [4]; Median CC50,> 20 µM
same,CC50,"in vitro [4]; Median CC50, Huh7, line of MHV, N=2",> 20 µM
same,CC50,"in vitro [4]; Median CC50, Huh7, line of PDCoV, N=2",> 30 µM
